Results: patent US9493468B2, “Antifungal 5,6-dihydro-4H-pyrrolo[1,2-a][1,4]benzo-diazepines and 6H-pyrrolo[1,2-a][1,4]benzodiazepines substituted with heterocyclic derivatives” (Janssen Pharmaceutica NV, priority 2011, dated 2016)

Columns and labels:
Assay type in all cases: cell-based
Microsporum canis = test: Antifungal activity in vitro, resazurin growth inhibition: Microsporum canis (B68128)
Method: (§1) The standard susceptibility screen is performed in 96-well plates (U-bottom, Greiner Bio-One). Serial dilutions (2-fold or 4-fold) of 20 mM compound stock solutions are made in 100% DMSO, followed by an intermediate dilution step in water. These serial dilutions (10 μl) are then spotted onto test-plates that can be stored in the dark at 4° C. for a maximum period of 2 weeks. An adequate broad dose-range is included with 64 μM as the highest in-test concentration. The culture medium RPMI-1640 is supplemented with L-glutamine, 2% glucose and buffered with 3-(N-morpholino)-propanesulfonic acid (MOPS) at pH 7.0±0.1.
(§2) The different fungal species/isolates (Table 3a) are cryopreserved and 1/1000 diluted in medium just prior to use. A standard inoculum of 200 μl containing 10^3 colony-forming unit (cfu) is then added to each well. A positive control (100% growth=fungal culture without antifungal) and a negative control (0% growth ═RPMI-MOPS medium) are included on each plate. Optimal incubation time and temperature are dependent on the fungal species and vary from 24 h for yeasts (37° C.) to one week or more for dermatophytes (27° C.). Inhibition of fungal growth is measured after adding 10 μl of 0.005% (w/v) resazurin (Sigma Aldrich) to each well, based on the principle that living cells convert the non-fluorescent blue resazurin into the pink and fluorescent resorufin, allowing fluorimetric reading (λex 550 nm and λem 590 nm) after an additional incubation period (‘resa’ time mentioned in Table 3a).

Cryptococcus neoformans = test: Antifungal activity in vitro, resazurin growth inhibition: Cryptococcus neoformans (B66663)
Method: as §1, §2

Sporothrix schenkii = test: Antifungal activity in vitro, resazurin growth inhibition: Sporothrix schenkii (B62482)
Method: as §1, §2

Candida parapsilosis = test: Antifungal activity in vitro, resazurin growth inhibition: Candida parapsilosis (B66126)
Method: as §1, §2

Aspergillus fumigatus = test: Antifungal activity in vitro, resazurin growth inhibition: Aspergillus fumigatus (B42928)
Method: as §1, §2

Trichophyton rubrum = test: Antifungal activity in vitro, resazurin growth inhibition: Trichophyton rubrum (B68183)
Method: as §1, §2

[1] = system: Trichophyton mentagrophytes; test: Antifungal activity in vitro, resazurin growth inhibition: Trichophyton mentagrophytes (B70554)
Method: as §1, §2

Structure (SMILES) | Inf. B: Microsporum canis B68128, pIC50 (Microsporum canis) | Inf. F: Cryptococcus neoformans B66663, pIC50 (Cryptococcus neoformans) | Inf. A: Sporothrix schenkii B62482, pIC50 (Sporothrix schenkii) | Inf. D: Candida parapsilosis B66126, pIC50 (Candida parapsilosis) | Inf. E: Aspergillus fumigatus B42928, pIC50 (Aspergillus fumigatus) | Inf. C: Trichophyton rubrum B68183, pIC50 (Trichophyton rubrum) | Inf. G: Trichophyton mentagrophytes B70554, pIC50 [1]
CC(C)n1ccc(C2=NCc3cccc(Cl)c3-n3cccc32)cc1=O [Compound 71] | 5.83 | 5.00 | 5.42 | <4.19 | <4.19 | 5.55 | 5.78
COc1ccc2oc(C3NCc4c(Cl)cc(Cl)cc4-n4cccc43)cc2c1.Cl (racemic) [Compound 46] | 5.12 | <4.19 | <4.19 | <4.19 | <4.19 | <4.19 | <4.19
Cl.Clc1cccc2c1CNC(c1nc3ccccc3s1)c1cccn1-2 (racemic) [Compound 59] | 6.22 | <4.19 | 4.85 | <4.19 | <4.19 | 6.47 | 6.00
FC(F)(F)c1ncc(C2=NCc3ccccc3-n3cccc32)cn1 [Compound 101] | 4.56 | <4.19 | <4.19 | <4.19 | <4.19 | 5.23 | 5.57
CCc1cc(C2=NCc3c(Cl)cccc3-n3cccc32)on1 [Compound 63] | <4.19 | <4.19 | <4.19 | <4.19 | <4.19 | 5.72 | 5.58
Br.Clc1cccc2c1CNC(c1ccncc1)c1cccn1-2 (racemic) [Compound 21] | 5.04 | 4.66 | 4.70 | <4.19 | <4.19 | 5.52 | 
Br.Clc1ccc2c(c1)CNC(c1ccncc1)c1cccn1-2 (racemic) [Compound 22] | 5.22 | 4.32 | <4.19 | <4.19 | <4.19 | 5.10 | 

Continued, values first:

Inf. B: Microsporum canis B68128, pIC50 (Microsporum canis) | Inf. F: Cryptococcus neoformans B66663, pIC50 (Cryptococcus neoformans) | Inf. A: Sporothrix schenkii B62482, pIC50 (Sporothrix schenkii) | Inf. D: Candida parapsilosis B66126, pIC50 (Candida parapsilosis) | Inf. E: Aspergillus fumigatus B42928, pIC50 (Aspergillus fumigatus) | Inf. C: Trichophyton rubrum B68183, pIC50 (Trichophyton rubrum) | Inf. G: Trichophyton mentagrophytes B70554, pIC50 [1] | Structure (SMILES)
5.23 | 4.49 | 4.22 | <4.19 | 4.36 | 5.61 | 5.21 | Cc1nc2ccc(C3=NCc4c(Cl)cccc4-n4cccc43)cc2o1 [Compound 162]
4.46 | <4.19 | <4.19 | <4.19 | <4.19 | 4.40 | <4.19 | Cc1ccc2cc(C3=NCc4c(Cl)cc(Cl)cc4-n4cccc43)oc2c1 [Compound 139]
4.59 | <4.49 | <4.49 | <4.49 | <4.49 | 5.54 | <4.49 | Cc1cccc2oc(C3=NCc4c(Cl)cccc4-n4cccc43)cc12 [Compound 132]
 | <4 | <4 | <4 | <4 | <4 | <4 | Clc1cccc2c1CN=C(c1ccc3nc[nH]c3c1)c1cccn1-2 [Compound 205]
